Where no end group is shown, it is not given here.

One may read the inhibition as the change of the read-out against control, counted positive when it falls.

Common to all, as to assay type: cell-based
Series [1] relates to U937 macrophage line. The note with it: MTT; peptide 20 and 200 μM in 1X PBS, 2 h; 5 x 10^4 cells/well; absorbance 570 nm. As to the method: Rv3632 peptides' cytotoxic effect was evaluated by viability assay involving MTT (3- (4,5-dimethylthiazol-2-yl) -2,5-diphenyltetrazolium bromide) tetrazolium reduction, where 5 x 10^4 cells/well were incubated for 2 hours with each peptide at 20 and 200 μM in 1X PBS, using the previously mentioned incubation conditions for the invasion assay; 10% SDS was used as cytotoxicity control. After incubation time had elapsed, 10μL MTT were added to each well and left for 12 hours; the formazan crystals so formed were dissolved with sodium dodecyl sulfate (SDS) for reading absorbance at 570nm on a spectrophotometer (Multiskan GO, Thermo Scientific). Multiskan GO (v. 3.2) software was used for analysing the data.

The test system of series [2] is Mtb H37Rv entry to U937 macrophages. In words: microbe, parasite or virus in culture. The note with it: Mycobacterium tuberculosis, U-937, 480 h, inhibition control at 30 μM, triplicate, read-out: inhibition of mycobacterial entry to U937 monocyte-derived macrophages.
Series [3] concerns Mtb H37Rv entry to A549 alveolar epithelial cells. In words: microbe, parasite or virus in culture. Particulars: Mycobacterium tuberculosis, A549, 480 h, inhibition control at 30 μM, triplicate, read-out: inhibition of mycobacterial entry to A549 epithelial cells.

Consider TLSTYMRFKDLELRYARIAR [compound 39255], for which the “cytotoxic effect on the U937 macrophage line, result in words” value in series [1] is “without having a cytotoxic effect”.
As to `C=C1[C@@H](C)[C@H]2[C@H](Cc3ccccc3)NC(=O)[C@]23[C@H](OC(C)=O)/C=C/[C@@](C)(O)C(=O)[C@@H](C)C/C=C/[C@H]3[C@@H]1O` [Cytochalasin, Cytochalasin D], the inhibition at 30 µM in series [2] turned out to be 80%; in series [3] it was 60%.

For the origin of these results see PMC6487176, “Specific Binding Peptides from Rv3632: A Strategy for Blocking Mycobacterium tuberculosis Entry to Target Cells?” (BioMed Research International, 2019).
